The structures appear in SMILES notation. Where two headings read alike, the source gives them in different places.

A word on the Ki: it is the dissociation constant of the complex between target and ligand, obtained from inhibition or displacement. In general, EC50 refers to the concentration needed to bring the measured effect to its halfway point.

The target of one assay is T1, 5-HT1D (Homo sapiens, UniProt P28221).
T1 construct: gene HTR1D; full-length receptor; HEK293 with TRUPATH sensors (function)
T1 sequence (P28221 whole entry): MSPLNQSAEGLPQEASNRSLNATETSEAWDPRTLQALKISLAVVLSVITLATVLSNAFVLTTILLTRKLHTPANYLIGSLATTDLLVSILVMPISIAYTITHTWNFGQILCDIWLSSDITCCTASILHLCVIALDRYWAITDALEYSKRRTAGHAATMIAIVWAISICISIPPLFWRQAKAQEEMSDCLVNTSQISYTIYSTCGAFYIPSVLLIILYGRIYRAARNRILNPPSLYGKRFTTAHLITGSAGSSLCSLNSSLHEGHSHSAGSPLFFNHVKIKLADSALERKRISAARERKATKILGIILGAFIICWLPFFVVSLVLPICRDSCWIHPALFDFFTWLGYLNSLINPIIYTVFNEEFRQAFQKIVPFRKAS
Nature of the assay: competitive radioligand binding, HEK293 membranes.

The target in a further assay is T2, 5-HT1F (Homo sapiens, UniProt P30939).
T2 construct: gene HTR1F; full-length receptor; HEK293 cell membranes
T2 sequence (P30939 whole entry): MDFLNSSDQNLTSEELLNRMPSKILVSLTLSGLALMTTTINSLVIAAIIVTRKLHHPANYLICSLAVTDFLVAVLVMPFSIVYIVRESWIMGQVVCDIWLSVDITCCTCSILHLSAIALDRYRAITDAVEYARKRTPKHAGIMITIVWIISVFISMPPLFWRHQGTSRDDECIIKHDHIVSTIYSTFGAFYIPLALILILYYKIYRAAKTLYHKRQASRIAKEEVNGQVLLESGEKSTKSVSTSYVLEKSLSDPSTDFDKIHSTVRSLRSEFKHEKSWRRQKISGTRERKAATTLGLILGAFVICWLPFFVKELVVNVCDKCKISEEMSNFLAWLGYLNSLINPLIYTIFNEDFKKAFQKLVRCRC
Nature of the assay: competitive radioligand binding, HEK293 membranes. The text has this:
competitive radioligand binding, HEK293 membranes on 5-HT1F

The target of another assay is T3, M2 (Homo sapiens, UniProt P08172).
T3 construct: gene CHRM2; full-length receptor; HEK293 with TRUPATH sensors (function)
T3 sequence (P08172 1-466): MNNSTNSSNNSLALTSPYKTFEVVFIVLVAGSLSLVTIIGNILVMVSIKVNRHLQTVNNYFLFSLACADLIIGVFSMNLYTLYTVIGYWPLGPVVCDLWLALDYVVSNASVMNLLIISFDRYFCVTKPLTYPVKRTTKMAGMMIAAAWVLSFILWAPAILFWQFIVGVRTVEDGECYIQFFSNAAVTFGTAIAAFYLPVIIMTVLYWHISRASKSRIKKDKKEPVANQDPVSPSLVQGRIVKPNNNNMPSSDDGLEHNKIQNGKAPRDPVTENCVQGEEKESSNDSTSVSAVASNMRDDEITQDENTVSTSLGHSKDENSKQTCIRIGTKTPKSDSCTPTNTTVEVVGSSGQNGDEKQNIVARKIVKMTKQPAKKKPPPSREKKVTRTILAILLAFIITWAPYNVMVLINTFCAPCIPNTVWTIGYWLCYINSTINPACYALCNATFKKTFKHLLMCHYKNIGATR
Nature of the assay: competitive radioligand binding, HEK293 membranes.

The next assay concerns the target T4, M1 (Homo sapiens, UniProt P11229).
T4 construct: gene CHRM1; full-length receptor; HEK293 with TRUPATH sensors (function)
T4 sequence (P11229 1-460): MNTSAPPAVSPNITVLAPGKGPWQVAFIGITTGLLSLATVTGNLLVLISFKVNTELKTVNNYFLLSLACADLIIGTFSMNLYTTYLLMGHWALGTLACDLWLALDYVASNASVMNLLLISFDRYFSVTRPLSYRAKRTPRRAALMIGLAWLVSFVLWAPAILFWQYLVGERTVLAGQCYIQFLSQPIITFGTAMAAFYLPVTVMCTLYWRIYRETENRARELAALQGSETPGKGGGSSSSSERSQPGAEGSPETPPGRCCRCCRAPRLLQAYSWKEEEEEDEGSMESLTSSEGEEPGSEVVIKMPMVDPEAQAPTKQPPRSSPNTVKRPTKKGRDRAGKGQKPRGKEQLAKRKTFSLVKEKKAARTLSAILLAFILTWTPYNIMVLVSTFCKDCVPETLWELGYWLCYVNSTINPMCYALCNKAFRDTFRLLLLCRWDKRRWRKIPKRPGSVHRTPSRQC
Nature of the assay: competitive radioligand binding, HEK293 membranes.

A further assay addresses T5, CHRM5 (Homo sapiens, UniProt P08912).
T5 sequence (P08912 1-532): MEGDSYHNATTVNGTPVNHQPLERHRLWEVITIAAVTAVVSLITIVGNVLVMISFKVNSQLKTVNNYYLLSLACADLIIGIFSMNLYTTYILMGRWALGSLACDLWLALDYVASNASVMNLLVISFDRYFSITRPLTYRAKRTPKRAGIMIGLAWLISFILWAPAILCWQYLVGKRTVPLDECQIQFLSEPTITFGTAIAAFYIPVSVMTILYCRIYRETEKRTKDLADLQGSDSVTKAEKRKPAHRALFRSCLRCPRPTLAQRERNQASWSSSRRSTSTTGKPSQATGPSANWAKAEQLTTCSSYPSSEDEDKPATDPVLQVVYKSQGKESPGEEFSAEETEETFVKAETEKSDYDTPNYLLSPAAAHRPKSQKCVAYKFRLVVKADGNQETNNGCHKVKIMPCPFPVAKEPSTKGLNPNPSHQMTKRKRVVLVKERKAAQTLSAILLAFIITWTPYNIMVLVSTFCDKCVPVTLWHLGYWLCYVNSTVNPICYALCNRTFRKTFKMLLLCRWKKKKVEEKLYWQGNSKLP
Nature of the assay: cell-based. On the set-up: PRESTO-Tango beta-arrestin2 recruitment, luciferase luminescence, concentration-response. Particulars: HTLA, Assay=Tango, agonist mode, % of control agonist. As to the method:
(§1) Off-target agonism across the human GPCRome was profiled using PRESTO-Tango, following established protocols with minor adaptations [10]–[12]. […] After ~6 h recovery, cells were transfected with 20 ng plasmid DNA per well and incubated overnight. The next day, 10 µL of test compound (prepared in DMEM + 1% dFBS) was added, and plates were incubated overnight. Media and compounds were removed, and 20 µL per well of Bright-Glo luciferase reagent diluted in assay buffer (Hank’s Balanced Salt Solution (HBSS), 20 mM HEPES, pH 7.4) was added. After 20 min at room temperature (dark), luminescence was recorded. Each plate included the dopamine D2 receptor (DRD2) stimulated with 100 nM quinpirole as a positive control. For the GPCRome screen, each receptor was tested in quadruplicate at 0 and 10 µM compound (final). Responses were expressed as fold change relative to the basal (0 µM) condition. Follow-up concentration–response assays were performed under identical conditions except that serial dilutions of compounds (maximum ~30 µM, final) were added to generate full concentration–response curves.

The next assay addresses HRH4 (Homo sapiens, UniProt Q9H3N8). Nature of the assay: cell-based. Also noted: PRESTO-Tango beta-arrestin2 recruitment, luciferase luminescence, concentration-response. Conditions: HTLA, Assay=Tango, agonist mode, % of control agonist. As to the method: as §1
The next assay concerns the target CHRM3 (Homo sapiens, UniProt P20309). Nature of the assay: cell-based. On the set-up: species or system HEK293; Fluo-4 Direct calcium mobilization on FLIPR-Tetra. Conditions: Assay=Calcium; agonist mode.
For a further assay, the target named is HTR2A (Homo sapiens, UniProt P28223). Nature of the assay: cell-based. On the set-up: Fluo-4 Direct calcium mobilization on FLIPR-Tetra. Particulars: HEK293, read-out: N-Desmethyl Xanomeline; Assay=Calcium; agonist mode, % of control agonist.
Chain of HTR2A (P28223 whole entry): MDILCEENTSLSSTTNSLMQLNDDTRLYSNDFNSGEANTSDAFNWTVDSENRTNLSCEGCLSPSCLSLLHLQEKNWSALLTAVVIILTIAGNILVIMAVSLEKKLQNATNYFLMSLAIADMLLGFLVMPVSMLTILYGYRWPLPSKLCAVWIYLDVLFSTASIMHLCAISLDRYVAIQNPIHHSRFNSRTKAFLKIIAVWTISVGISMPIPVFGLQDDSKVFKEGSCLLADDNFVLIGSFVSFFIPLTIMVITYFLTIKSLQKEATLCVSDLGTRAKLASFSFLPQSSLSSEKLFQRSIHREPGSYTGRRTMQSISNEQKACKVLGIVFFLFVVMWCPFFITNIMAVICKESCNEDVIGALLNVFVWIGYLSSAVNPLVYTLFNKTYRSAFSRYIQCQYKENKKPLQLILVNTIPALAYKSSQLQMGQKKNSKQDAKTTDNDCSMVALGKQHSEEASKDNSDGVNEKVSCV
Another assay has as its target α1A (Homo sapiens, UniProt P35348). Nature of the assay: competitive radioligand binding, HEK293 membranes. Also noted: gene ADRA1A; full-length receptor; HEK293 cell membranes. An excerpt:
competitive radioligand binding, HEK293 membranes on α1A

[1] abbreviates: read-out: N-Desmethyl Xanomeline.

Chain of HRH4 (Q9H3N8 whole entry): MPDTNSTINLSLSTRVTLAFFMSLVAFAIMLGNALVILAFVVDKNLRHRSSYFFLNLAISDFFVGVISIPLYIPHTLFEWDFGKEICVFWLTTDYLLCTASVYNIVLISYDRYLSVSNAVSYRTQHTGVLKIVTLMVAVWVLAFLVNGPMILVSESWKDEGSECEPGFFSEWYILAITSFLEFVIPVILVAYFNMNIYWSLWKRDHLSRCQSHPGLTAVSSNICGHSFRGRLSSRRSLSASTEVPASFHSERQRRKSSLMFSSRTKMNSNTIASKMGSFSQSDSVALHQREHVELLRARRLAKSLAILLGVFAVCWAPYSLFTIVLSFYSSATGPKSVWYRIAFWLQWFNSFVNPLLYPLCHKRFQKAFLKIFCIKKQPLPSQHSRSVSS
Chain of CHRM3 (P20309 whole entry): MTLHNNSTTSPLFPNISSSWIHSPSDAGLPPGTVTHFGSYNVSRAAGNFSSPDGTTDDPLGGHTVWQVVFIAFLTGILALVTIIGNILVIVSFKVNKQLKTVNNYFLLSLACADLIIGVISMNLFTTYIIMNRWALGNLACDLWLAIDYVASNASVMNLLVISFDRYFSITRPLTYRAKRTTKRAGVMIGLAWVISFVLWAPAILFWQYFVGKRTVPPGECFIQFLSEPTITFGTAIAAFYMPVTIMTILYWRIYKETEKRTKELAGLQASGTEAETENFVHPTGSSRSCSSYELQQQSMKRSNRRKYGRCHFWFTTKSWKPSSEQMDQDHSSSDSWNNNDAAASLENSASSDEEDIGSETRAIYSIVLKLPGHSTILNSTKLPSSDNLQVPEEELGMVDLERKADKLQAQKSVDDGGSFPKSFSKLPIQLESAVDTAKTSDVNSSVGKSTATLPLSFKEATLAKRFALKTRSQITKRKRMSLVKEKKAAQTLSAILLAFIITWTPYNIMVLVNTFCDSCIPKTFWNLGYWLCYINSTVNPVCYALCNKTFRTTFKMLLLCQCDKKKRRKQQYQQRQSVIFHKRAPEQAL
Chain of α1A (P35348 whole entry): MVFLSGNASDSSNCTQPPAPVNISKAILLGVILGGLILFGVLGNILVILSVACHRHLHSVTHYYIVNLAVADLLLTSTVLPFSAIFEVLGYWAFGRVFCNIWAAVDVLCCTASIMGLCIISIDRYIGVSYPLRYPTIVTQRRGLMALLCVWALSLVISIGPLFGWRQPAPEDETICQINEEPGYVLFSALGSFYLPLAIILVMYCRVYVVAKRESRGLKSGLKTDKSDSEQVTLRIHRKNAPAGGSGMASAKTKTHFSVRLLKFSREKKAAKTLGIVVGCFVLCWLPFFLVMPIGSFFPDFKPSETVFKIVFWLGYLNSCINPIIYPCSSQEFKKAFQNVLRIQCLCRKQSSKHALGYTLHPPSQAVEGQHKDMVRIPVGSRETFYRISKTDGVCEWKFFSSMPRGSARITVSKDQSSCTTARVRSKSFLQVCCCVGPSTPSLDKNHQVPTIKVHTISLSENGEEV

As for `CCCCCCOc1nsnc1C1=CCCNC1` [N-desmethylxanomeline], the Ki at 5-HT1D is 38.9 nM; at 5-HT1F it was 224 nM; at M2, 1450 nM; on M1 it was 219 nM; at α1A, 282 nM. For the same compound, the Emax at CHRM5 (setting [1]) amounted to 48.2%; at HRH4 (setting [1]), 10.4%; on HTR2A, 63.4%. Moreover, the EC50 on CHRM3 stood at 64.1 nM.
Regarding `CCCCCCOc1nsnc1C1=CCCN(C)C1` [Xanomeline], affinity at 5-HT1F was put at a Ki of 759 nM. Besides, the values for the Emax at CHRM5 (read-out: Xanomeline) and on HRH4 (read-out: Xanomeline) were 70.1% and 37.3%, respectively. In addition, the EC50 on CHRM3 was 34 nM.
